From patent US20090318468A1, “PYRAZOLE COMPOUNDS 436” (AstraZeneca AB, priority 2008, published 2009)

Target: T1, human cytochrome P450 (CYP) 2C19 (Homo sapiens, UniProt P33261)
T1 construct: made in house; host or cells: yeast (microsomal fraction)
Assay: Cytochrome P450 Inhibition Assay, CYP 2C19
Assay type: in vitro ADME
Details: expected IC50 range of known inhibitor (positive control); read-out: IC50 range (μM), CYP 2C19
Description: Cytochrome P450 Inhibition Assay
The inhibitory potential (IC50) of test compounds against 5 human cytochrome P450 (CYP) isoforms (1A2, 2C9, 2C19, 3A4 and 2D6) was assessed using an automated fluorescent end point in vitro assay modified from Crespi (Crespi and Stresser, J Pharmacol Toxicol Methods 2000, 44: 325-331). Microsomal subcellular fractions prepared from Yeast cell lines expressing each human CYP isoform were used as an enzyme source in this assay. The activity of the 5 major human CYPs was determined from the biotransformation of a number of coumarin substrates to fluorescent metabolites, in the presence of NADPH. […] Stock solutions of each CYP, with its respective substrate, were prepared in phosphate buffer pH 7.4 (see Table 1) and 178 μl was added to the well of a black solid, flat bottom, 300 μl 96 well microtitre plate (Corning Costar). […] After pre-incubating at 37° C. for 5 min the reactions were started with addition of NADPH (20 μl, concentration shown in Table 1). The final solvent content in each incubation was <=2% (1% from the test compound and a maximum of 1% from the substrate). The appropriate solvent controls and substrate blanks were included in each experiment to assess control activity and identify any inherent fluorescence due to the test compounds. In addition, known inhibitors of each CYP were included as positive controls (see Table 3 for inhibitor concentrations and expected IC50 ranges). The reactions were stopped at defined timepoints (see Table 1) by quenching with 100 μl of solvent (acetonitrile:0.5M Tris buffer 80:20 v/v). The plates were read on a fluorimeter (Spectrafluor Plus) at the appropriate excitation and emission wavelengths (listed in Table 2) and the percent activity, corrected for control, was plotted against the test compound concentration.

T1 sequence (P33261 whole entry): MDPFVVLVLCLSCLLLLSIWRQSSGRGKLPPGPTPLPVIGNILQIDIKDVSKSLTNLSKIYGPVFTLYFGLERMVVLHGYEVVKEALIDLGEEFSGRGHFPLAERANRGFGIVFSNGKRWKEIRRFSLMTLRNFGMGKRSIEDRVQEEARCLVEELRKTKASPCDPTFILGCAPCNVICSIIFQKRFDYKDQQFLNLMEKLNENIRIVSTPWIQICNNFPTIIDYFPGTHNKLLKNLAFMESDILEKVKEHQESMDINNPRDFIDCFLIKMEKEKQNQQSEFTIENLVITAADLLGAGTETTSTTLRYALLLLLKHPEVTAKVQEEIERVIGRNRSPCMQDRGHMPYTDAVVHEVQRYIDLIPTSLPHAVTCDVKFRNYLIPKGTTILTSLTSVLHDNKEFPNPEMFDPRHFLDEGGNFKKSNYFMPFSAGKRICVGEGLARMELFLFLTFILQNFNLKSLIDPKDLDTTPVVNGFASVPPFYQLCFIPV

SMILES: COc1ccc2[nH]c([S+]([O-])Cc3ncc(C)c(OC)c3C)nc2c1 (stereo not shown) [Omeprazole, reference compound]
- IC50: 1.5 to 4.6 µM
